Results on four compounds are retold here after article PMC9305623, “Next generation GLP-1/GIP/glucagon triple agonists normalize body weight in obese mice” (Molecular Metabolism, 2022).

SMILES strings stand for the structures. *1 amine or outer side, *2 acyl side, *3 side chain or, on linkers, in order; H or OH if unused. Where a SMILES comes first, the peptide text is derived from it. Side-chain parts run from the residue outwards. [ ]: non-standard residue; d: D form. The star is where a group is joined. C20 diacid = O=C(O)CCCCCCCCCCCCCCCCCCC(=O)*; γGlu = O=C(O)[C@H](CCC(=O)[*:2])N[*:1]; εLys = N[C@@H](CCCCN[*:1])C(=O)[*:2]; Aib = CC(C)(N)C(=O)O

Assay in all cases: Receptor activation: cAMP production by CRE-luciferase reporter in stably transfected BHK cells
Common to all, as to assay type: cell-based
What all share (conditions): compared to the native ligand for the receptor
For orientation: Changes in cAMP serve as a functional read-out for many G protein-coupled receptors.

For one test, the target named is T1, hGcg Receptor (Homo sapiens, UniProt P47871).
T1 construct: expressed in transfected cells; host or cells: baby hamster kidney (BHK) cells, stably transfected, with CRE-firefly luciferase reporter
T1 sequence (P47871 26-477): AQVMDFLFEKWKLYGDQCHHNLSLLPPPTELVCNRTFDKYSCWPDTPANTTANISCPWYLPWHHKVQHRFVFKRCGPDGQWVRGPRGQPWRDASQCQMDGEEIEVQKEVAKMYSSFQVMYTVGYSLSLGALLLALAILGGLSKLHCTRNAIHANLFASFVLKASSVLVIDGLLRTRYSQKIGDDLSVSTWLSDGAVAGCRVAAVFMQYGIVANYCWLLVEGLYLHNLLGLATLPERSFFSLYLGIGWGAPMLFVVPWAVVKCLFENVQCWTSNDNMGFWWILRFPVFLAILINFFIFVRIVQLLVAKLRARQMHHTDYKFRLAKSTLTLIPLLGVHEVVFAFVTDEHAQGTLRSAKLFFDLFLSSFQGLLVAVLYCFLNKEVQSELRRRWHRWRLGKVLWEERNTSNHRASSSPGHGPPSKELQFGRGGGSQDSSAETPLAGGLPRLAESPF
The method, then:
(§1) Cyclic AMP (cAMP) production was assessed as a proxy for receptor activation using stably transfected baby hamster kidney (BHK) cell lines expressing the DNA for one individual receptor (GLP-1R, GIPR, GcgR; human- or mouse-specific sequence) and the DNA for the firefly luciferase reporter gene linked to the cAMP response element (CRE). The cells were kept in continuous culture at 37 °C and 5% CO2 in Dulbecco's Modified Eagle Medium (DMEM) supplemented with 10% heat-inactivated fetal bovine serum (HI-FBS), 300 μg/mL hygromycin, and 500 μg/mL G418; for cell lines expressing GIPR, the G418 concentration was lowered to 400 μg/mL. Cells were plated in a 96-well poly-D-lysine-coated plate at 5,000 cells per well in growth media and incubated overnight at 37 °C with 5% CO2. After the overnight incubation, the media was removed, the plate was washed once in Dulbecco's phosphase-buffered saline (DPBS), and 50 μL of assay buffer (DMEM without phenol red, 10 mM HEPES, 1x Glutamax, 1% ovalbumin, 0.1% Pluronic F-68) was added to each well. […] Aliquots of the dilution curves were added to the cell plate in a volume of 50 μL per well resulting in final assay concentrations ranging from 1 × 10^−14 to 1 × 10^−7 M. The assay plate was incubated for 3 h at 37 °C and 5% CO2. After the incubation, the assay plate was washed once with DPBS. A 100 μL aliquot of DPBS was added to each well followed by 100 μL of steadylite plus reagent (PerkinElmer). The assay plate was covered to protect reagent from light, shaken at 250 rpm at room temperature for 30 min, and read in a microtiter plate reader. EC50 values were calculated using Prism software (GraphPad) with the nonlinear regression log(agonist) vs. response. A minimum of two replicates were measured for each sample.

Another test deals with T2, hGLP-1 Receptor (Homo sapiens, UniProt P43220).
T2 construct: expressed in transfected cells; host or cells: baby hamster kidney (BHK) cells, stably transfected, with CRE-firefly luciferase reporter
T2 sequence (P43220 24-463): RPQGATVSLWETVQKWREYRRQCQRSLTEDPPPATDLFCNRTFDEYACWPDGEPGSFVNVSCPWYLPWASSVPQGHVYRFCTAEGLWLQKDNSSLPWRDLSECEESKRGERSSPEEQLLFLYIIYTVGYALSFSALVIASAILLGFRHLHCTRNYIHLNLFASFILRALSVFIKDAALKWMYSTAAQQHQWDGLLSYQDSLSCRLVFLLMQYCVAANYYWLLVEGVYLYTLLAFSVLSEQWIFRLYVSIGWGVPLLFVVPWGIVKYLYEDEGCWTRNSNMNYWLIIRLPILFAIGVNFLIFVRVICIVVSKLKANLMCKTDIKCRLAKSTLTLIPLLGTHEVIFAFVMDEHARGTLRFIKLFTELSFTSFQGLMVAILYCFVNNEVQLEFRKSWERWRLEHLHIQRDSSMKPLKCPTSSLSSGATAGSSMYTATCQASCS
The method, then:
as §1

For another test, the target named is T3, hGIP Receptor (Homo sapiens, UniProt P48546).
T3 construct: expressed in transfected cells; host or cells: baby hamster kidney (BHK) cells, stably transfected, with CRE-firefly luciferase reporter
T3 sequence (P48546 22-466): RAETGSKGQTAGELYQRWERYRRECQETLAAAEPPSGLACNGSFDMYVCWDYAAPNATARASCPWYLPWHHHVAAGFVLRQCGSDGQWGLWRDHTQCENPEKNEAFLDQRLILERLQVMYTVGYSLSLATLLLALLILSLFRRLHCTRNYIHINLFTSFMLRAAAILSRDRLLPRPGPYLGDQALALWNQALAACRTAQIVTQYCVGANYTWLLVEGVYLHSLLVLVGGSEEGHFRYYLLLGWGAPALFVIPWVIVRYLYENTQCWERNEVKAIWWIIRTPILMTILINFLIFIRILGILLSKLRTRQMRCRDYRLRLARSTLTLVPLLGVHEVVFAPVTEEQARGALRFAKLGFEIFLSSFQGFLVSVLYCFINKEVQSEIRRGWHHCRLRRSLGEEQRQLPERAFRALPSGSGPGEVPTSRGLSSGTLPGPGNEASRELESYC
The method, then:
as §1

As for `CC[C@H](C)[C@H](NC(=O)[C@H](CO)NC(=O)[C@H](Cc1ccc(O)cc1)NC(=O)[C@H](CC(=O)O)NC(=O)[C@H](CO)NC(=O)[C@@H](NC(=O)[C@H](Cc1ccccc1)NC(=O)[C@@H](NC(=O)CNC(=O)[C@H](CCC(N)=O)NC(=O)C(C)(C)NC(=O)[C@@H](N)Cc1c[nH]cn1)[C@@H](C)O)[C@@H](C)O)C(=O)N[C@@H](Cc1ccc(O)cc1)C(=O)N[C@@H](CC(C)C)C(=O)N[C@@H](CCC(=O)O)C(=O)N[C@@H](CCCCNC(=O)[C@@H](N)CCCCNC(=O)[C@@H](N)CCCCNC(=O)CC[C@H](NC(=O)CCCCCCCCCCCCCCCCCCC(=O)O)C(=O)O)C(=O)N[C@@H](CCC(N)=O)C(=O)N[C@@H](C)C(=O)N[C@@H](C)C(=O)NC(C)(C)C(=O)N[C@@H](CCC(=O)O)C(=O)N[C@@H](Cc1ccccc1)C(=O)N[C@H](C(=O)N[C@@H](CCC(N)=O)C(=O)N[C@@H](Cc1c[nH]c2ccccc12)C(=O)N[C@@H](CC(C)C)C(=O)N[C@@H](CC(C)C)C(=O)N[C@@H](CCC(=O)O)C(=O)NCC(=O)NCC(=O)N1CCC[C@H]1C(=O)N[C@@H](CO)C(=O)N[C@@H](CO)C(=O)NCC(=O)N[C@@H](C)C(=O)N1CCC[C@H]1C(=O)N1CCC[C@H]1C(=O)N1CCC[C@H]1C(=O)N[C@@H](CO)C(N)=O)C(C)C` [Compound 12] (H-H[Aib]QGTFTSDYSIYLEK([εLys-εLys-γGlu-C20 diacid])QAA[Aib]EFVQWLLEGGPSSGAPPPS-NH2), the “hGcg Receptor Relative Potency %” value on hGcg Receptor worked out at 3%. For the same compound, the “hGLP-1 Receptor Relative Potency %” value on hGLP-1 Receptor is recorded as 410%. Moreover, on hGIP Receptor, the “hGIP Receptor Relative Potency %” value amounted to 19%.
The like results for `CC[C@H](C)[C@H](NC(=O)[C@H](CO)NC(=O)[C@H](Cc1ccc(O)cc1)NC(=O)[C@H](CC(=O)O)NC(=O)[C@H](CO)NC(=O)[C@@H](NC(=O)[C@H](Cc1ccccc1)NC(=O)[C@@H](NC(=O)CNC(=O)[C@H](Cc1c[nH]cn1)NC(=O)C(C)(C)NC(=O)[C@@H](N)Cc1c[nH]cn1)[C@@H](C)O)[C@@H](C)O)C(=O)N[C@@H](Cc1ccc(O)cc1)C(=O)N[C@@H](CC(C)C)C(=O)N[C@@H](CCC(=O)O)C(=O)N[C@@H](CCCCNC(=O)[C@@H](N)CCCCNC(=O)[C@@H](N)CCCCNC(=O)CC[C@H](NC(=O)CCCCCCCCCCCCCCCCCCC(=O)O)C(=O)O)C(=O)N[C@@H](CCC(N)=O)C(=O)N[C@@H](C)C(=O)N[C@@H](C)C(=O)NC(C)(C)C(=O)N[C@@H](CCC(=O)O)C(=O)N[C@@H](Cc1ccccc1)C(=O)N[C@H](C(=O)N[C@@H](CCC(N)=O)C(=O)N[C@@H](Cc1c[nH]c2ccccc12)C(=O)N[C@@H](CC(C)C)C(=O)N[C@@H](CC(C)C)C(=O)N[C@@H](CCC(=O)O)C(=O)NCC(=O)NCC(=O)N1CCC[C@H]1C(=O)N[C@@H](CO)C(=O)N[C@@H](CO)C(=O)NCC(=O)N[C@@H](C)C(=O)N1CCC[C@H]1C(=O)N1CCC[C@H]1C(=O)N1CCC[C@H]1C(=O)N[C@@H](CO)C(N)=O)C(C)C` [Compound 13] (H-H[Aib]HGTFTSDYSIYLEK([εLys-εLys-γGlu-C20 diacid])QAA[Aib]EFVQWLLEGGPSSGAPPPS-NH2) were, in that order, 19%, 340% and 146%.
`CC[C@H](C)[C@H](NC(=O)[C@H](CO)NC(=O)[C@H](Cc1ccc(O)cc1)NC(=O)[C@H](CC(=O)O)NC(=O)[C@H](CO)NC(=O)[C@@H](NC(=O)[C@H](Cc1ccccc1)NC(=O)[C@@H](NC(=O)CNC(=O)[C@H](Cc1c[nH]cn1)NC(=O)C(C)(C)NC(=O)[C@@H](N)Cc1c[nH]cn1)[C@@H](C)O)[C@@H](C)O)C(=O)N[C@@H](Cc1ccc(O)cc1)C(=O)N[C@@H](CC(C)C)C(=O)N[C@@H](CCC(=O)O)C(=O)N[C@@H](CCCCNC(=O)[C@@H](N)CCCCNC(=O)[C@@H](N)CCCCNC(=O)CC[C@H](NC(=O)CCCCCCCCCCCCCCCCCCC(=O)O)C(=O)O)C(=O)N[C@@H](CCCCN)C(=O)N[C@@H](C)C(=O)N[C@@H](C)C(=O)NC(C)(C)C(=O)N[C@@H](CCC(=O)O)C(=O)N[C@@H](Cc1ccccc1)C(=O)N[C@H](C(=O)N[C@@H](CCC(N)=O)C(=O)N[C@@H](Cc1c[nH]c2ccccc12)C(=O)N[C@@H](CC(C)C)C(=O)N[C@@H](CC(C)C)C(=O)N[C@@H](CCC(=O)O)C(=O)NCC(=O)NCC(=O)N1CCC[C@H]1C(=O)N[C@@H](CO)C(=O)N[C@@H](CO)C(=O)NCC(=O)N[C@@H](C)C(=O)N1CCC[C@H]1C(=O)N1CCC[C@H]1C(=O)N1CCC[C@H]1C(=O)N[C@@H](CO)C(N)=O)C(C)C` [Compound 14] (H-H[Aib]HGTFTSDYSIYLEK([εLys-εLys-γGlu-C20 diacid])KAA[Aib]EFVQWLLEGGPSSGAPPPS-NH2): the “hGcg Receptor Relative Potency %” value on hGcg Receptor stood at 69%. Also, at hGLP-1 Receptor, the “hGLP-1 Receptor Relative Potency %” value is given as 211%. Also, the “hGIP Receptor Relative Potency %” value on hGIP Receptor is reported as 142%.
Consider `CC[C@H](C)[C@H](NC(=O)[C@H](CO)NC(=O)[C@H](Cc1ccc(O)cc1)NC(=O)[C@H](CC(=O)O)NC(=O)[C@H](CO)NC(=O)[C@@H](NC(=O)[C@H](Cc1ccccc1)NC(=O)[C@@H](NC(=O)CNC(=O)[C@H](Cc1c[nH]cn1)NC(=O)C(C)(C)NC(=O)[C@@H](N)Cc1c[nH]cn1)[C@@H](C)O)[C@@H](C)O)C(=O)N[C@@H](Cc1ccc(O)cc1)C(=O)N[C@@H](CC(C)C)C(=O)N[C@@H](CCC(=O)O)C(=O)N[C@@H](CCCCNC(=O)[C@@H](N)CCCCNC(=O)[C@@H](N)CCCCNC(=O)CC[C@H](NC(=O)CCCCCCCCCCCCCCCCCCC(=O)O)C(=O)O)C(=O)N[C@@H](CCC(N)=O)C(=O)N[C@@H](Cc1ccc(O)cc1)C(=O)N[C@@H](C)C(=O)NC(C)(C)C(=O)N[C@@H](CCC(=O)O)C(=O)N[C@@H](Cc1ccccc1)C(=O)N[C@H](C(=O)N[C@@H](CCC(N)=O)C(=O)N[C@@H](Cc1c[nH]c2ccccc12)C(=O)N[C@@H](CC(C)C)C(=O)N[C@@H](CC(C)C)C(=O)N[C@@H](CCC(=O)O)C(=O)NCC(=O)NCC(=O)N1CCC[C@H]1C(=O)N[C@@H](CO)C(=O)N[C@@H](CO)C(=O)NCC(=O)N[C@@H](C)C(=O)N1CCC[C@H]1C(=O)N1CCC[C@H]1C(=O)N1CCC[C@H]1C(=O)N[C@@H](CO)C(N)=O)C(C)C` [Compound 15] (H-H[Aib]HGTFTSDYSIYLEK([εLys-εLys-γGlu-C20 diacid])QYA[Aib]EFVQWLLEGGPSSGAPPPS-NH2), for which the “hGcg Receptor Relative Potency %” value at hGcg Receptor was 72%. For the same compound, the “hGLP-1 Receptor Relative Potency %” value at hGLP-1 Receptor is 101%. Further, at hGIP Receptor, the “hGIP Receptor Relative Potency %” value was 135%.
